Results: PubChem BioAssay AID2060889 (Molecular Pharmacology Branch, DTP, NCI, 2025)

System: LG0567-F671-PDC complex spheroids viability
Assay: Anticancer human tumor LG0567-F671-PDC patient-derived lung adenocarcinoma cell line growth inhibition [RAS]
Conditions: for viability, T/C: stronger effect = lower value
How it was run: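 Multi-cell-type spheroids: tumor cells plus HUVEC endothelial cells and mesenchymal stem cells. RAS-pathway inhibitors were combined with targeted agents, each dosed in half-log steps down from clinical Cmax, or from 10 microM when Cmax was unknown.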
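Also: spheroids exposed to compound for seven days before readout.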
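For IC50 in this document: luminescence signal used as a proxy for viable cells.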

Work on `CCc1c2c(nc3ccc(O)cc13)-c1cc3c(c(=O)n1C2)COC(=O)[C@]3(O)CC` + CCn1c(-c2cc(N3CCN(C)CC3)cnc2C(C)OC)c2c3cc(ccc31)-c1csc(n1)CC(NC(=O)C1CC1C)C(=O)N1CCCC(N1)C(=O)OCC(C)(C)C2 yielded an IC50 (curve of first compound, second compound 0.000949 µM) of under 0.949 nM, an IC50 (curve of first compound, second compound 0.003 µM) of under 0.949 nM and an IC50 (curve of first compound, second compound 0.00949 µM) of under 0.949 nM. It also gave an IC50 (curve of first compound, second compound 0.03 µM) of under 0.949 nM, an IC50 (curve of first compound, second compound 0.0949 µM) of under 0.949 nM and an IC50 (curve of first compound, second compound 0.3 µM) of under 0.949 nM. It also gave a viability, T/C (second compound 0.000949 µM, first compound 0.000949 µM) of 25.9%, a viability, T/C (second compound 0.000949 µM, first compound 0.003 µM) of 19.2% and a viability, T/C (second compound 0.000949 µM, first compound 0.00949 µM) of 16.8%. For the same molecule, the viability, T/C (second compound 0.000949 µM, first compound 0.03 µM) was 9.71%, the viability, T/C (second compound 0.000949 µM, first compound 0.0949 µM) was 6.4% and the viability, T/C (second compound 0.000949 µM, first compound 0.3 µM) was 3.66%. For the same molecule, the viability, T/C (second compound 0.003 µM, first compound 0.000949 µM) was 13.2%, the viability, T/C (second compound 0.003 µM, first compound 0.003 µM) was 10.5% and the viability, T/C (second compound 0.003 µM, first compound 0.00949 µM) was 8.66%. For the same molecule, the viability, T/C (second compound 0.003 µM, first compound 0.03 µM) was 6.1%, the viability, T/C (second compound 0.003 µM, first compound 0.0949 µM) was 4.22% and the viability, T/C (second compound 0.003 µM, first compound 0.3 µM) was 2.19%. For the same molecule, the viability, T/C (second compound 0.00949 µM, first compound 0.000949 µM) was 6.6%, the viability, T/C (second compound 0.00949 µM, first compound 0.003 µM) was 5.95% and the viability, T/C (second compound 0.00949 µM, first compound 0.00949 µM) was 4.92%. For the same molecule, the viability, T/C (second compound 0.00949 µM, first compound 0.03 µM) was 3.8%, the viability, T/C (second compound 0.00949 µM, first compound 0.0949 µM) was 2.17% and the viability, T/C (second compound 0.00949 µM, first compound 0.3 µM) was 1.39%. For the same molecule, the viability, T/C (second compound 0.03 µM, first compound 0.000949 µM) was 4.12%, the viability, T/C (second compound 0.03 µM, first compound 0.003 µM) was 3.96% and the viability, T/C (second compound 0.03 µM, first compound 0.00949 µM) was 3.68%. It also gave a viability, T/C (second compound 0.03 µM, first compound 0.03 µM) of 2.7%, a viability, T/C (second compound 0.03 µM, first compound 0.0949 µM) of 1.39% and a viability, T/C (second compound 0.03 µM, first compound 0.3 µM) of 0.64%. For the same molecule, the viability, T/C (second compound 0.0949 µM, first compound 0.000949 µM) was 3.25%, the viability, T/C (second compound 0.0949 µM, first compound 0.003 µM) was 3.49% and the viability, T/C (second compound 0.0949 µM, first compound 0.00949 µM) was 2.57%. It also gave a viability, T/C (second compound 0.0949 µM, first compound 0.03 µM) of 1.66%, a viability, T/C (second compound 0.0949 µM, first compound 0.0949 µM) of 1.51% and a viability, T/C (second compound 0.0949 µM, first compound 0.3 µM) of 0.39%. The viability, T/C (second compound 0.3 µM, first compound 0.000949 µM) was 2.45%, the viability, T/C (second compound 0.3 µM, first compound 0.003 µM) was 2.81% and the viability, T/C (second compound 0.3 µM, first compound 0.00949 µM) was 2.34%. It also gave a viability, T/C (second compound 0.3 µM, first compound 0.03 µM) of 1.76%, a viability, T/C (second compound 0.3 µM, first compound 0.0949 µM) of 0.8% and a viability, T/C (second compound 0.3 µM, first compound 0.3 µM) of 0.31%.

In the case of `CCn1c(-c2cc(N3CCN(C)CC3)cnc2C(C)OC)c2c3cc(ccc31)-c1csc(n1)CC(NC(=O)C1CC1C)C(=O)N1CCCC(N1)C(=O)OCC(C)(C)C2` (stereo unspecified), the viability, T/C (compound 0.000949 µM) is reported as 25.7% [middle of 8 runs], the viability, T/C (compound 0.003 µM) is reported as 11.3% [middle of 8 runs] and the viability, T/C (compound 0.00949 µM) is reported as 6.53% [middle of 8 runs]. For the same molecule, the viability, T/C (compound 0.03 µM) was 4.27% [middle of 8 runs], the viability, T/C (compound 0.0949 µM) was 3.45% [middle of 8 runs] and the viability, T/C (compound 0.3 µM) was 2.94% [middle of 8 runs]. For the same molecule, the IC50 (compound alone, run of 08/26/2024) was under 0.949 nM.

Molecule `CC(=O)OC12COC1CC(O)C1(C)C(=O)C(O)C3=C(C)C(OC(=O)C(O)C(NC(=O)OC(C)(C)C)c4ccccc4)CC(O)(C(OC(=O)c4ccccc4)C21)C3(C)C` (stereo unspecified) + C=CC(=O)N1CCN(c2nc(OCC3CCCN3C)nc3c(F)c(-c4nc(N)cc(C)c4C(F)(F)F)c(Cl)cc23)C(C)C1 has an IC50 (curve of first compound, second compound 0.00316 µM) of under 31.6 nM, an IC50 (curve of first compound, second compound 0.01 µM) of under 31.6 nM and an IC50 (curve of first compound, second compound 0.0316 µM) of under 31.6 nM. For the same molecule, the IC50 (curve of first compound, second compound 0.1 µM) was under 31.6 nM, the IC50 (curve of first compound, second compound 0.316 µM) was under 31.6 nM and the IC50 (curve of first compound, second compound 1 µM) was under 31.6 nM. For the same molecule, the viability, T/C (second compound 0.00316 µM, first compound 0.0316 µM) was 14%, the viability, T/C (second compound 0.00316 µM, first compound 0.1 µM) was 12.6% and the viability, T/C (second compound 0.00316 µM, first compound 0.316 µM) was 13.9%. It also gave a viability, T/C (second compound 0.00316 µM, first compound 1 µM) of 14.3%, a viability, T/C (second compound 0.00316 µM, first compound 3.16 µM) of 15.8% and a viability, T/C (second compound 0.00316 µM, first compound 10 µM) of 12%. The viability, T/C (second compound 0.01 µM, first compound 0.0316 µM) was 11.3%, the viability, T/C (second compound 0.01 µM, first compound 0.1 µM) was 11.3% and the viability, T/C (second compound 0.01 µM, first compound 0.316 µM) was 9.97%. The viability, T/C (second compound 0.01 µM, first compound 1 µM) was 11.6%, the viability, T/C (second compound 0.01 µM, first compound 3.16 µM) was 12.5% and the viability, T/C (second compound 0.01 µM, first compound 10 µM) was 9.61%. For the same molecule, the viability, T/C (second compound 0.0316 µM, first compound 0.0316 µM) was 13.7%, the viability, T/C (second compound 0.0316 µM, first compound 0.1 µM) was 11.6% and the viability, T/C (second compound 0.0316 µM, first compound 0.316 µM) was 10.8%. For the same molecule, the viability, T/C (second compound 0.0316 µM, first compound 1 µM) was 11.4%, the viability, T/C (second compound 0.0316 µM, first compound 3.16 µM) was 14.5% and the viability, T/C (second compound 0.0316 µM, first compound 10 µM) was 9.14%. For the same molecule, the viability, T/C (second compound 0.1 µM, first compound 0.0316 µM) was 11.1%, the viability, T/C (second compound 0.1 µM, first compound 0.1 µM) was 10.8% and the viability, T/C (second compound 0.1 µM, first compound 0.316 µM) was 10.9%. It also gave a viability, T/C (second compound 0.1 µM, first compound 1 µM) of 11.5%, a viability, T/C (second compound 0.1 µM, first compound 3.16 µM) of 13.6% and a viability, T/C (second compound 0.1 µM, first compound 10 µM) of 8.85%. For the same molecule, the viability, T/C (second compound 0.316 µM, first compound 0.0316 µM) was 11.9%, the viability, T/C (second compound 0.316 µM, first compound 0.1 µM) was 10.7% and the viability, T/C (second compound 0.316 µM, first compound 0.316 µM) was 11.5%. It also gave a viability, T/C (second compound 0.316 µM, first compound 1 µM) of 12.2%, a viability, T/C (second compound 0.316 µM, first compound 3.16 µM) of 14.7% and a viability, T/C (second compound 0.316 µM, first compound 10 µM) of 9.3%. It also gave a viability, T/C (second compound 1 µM, first compound 0.0316 µM) of 12.6%, a viability, T/C (second compound 1 µM, first compound 0.1 µM) of 10.2% and a viability, T/C (second compound 1 µM, first compound 0.316 µM) of 12.4%. For the same molecule, the viability, T/C (second compound 1 µM, first compound 1 µM) was 14.5%, the viability, T/C (second compound 1 µM, first compound 3.16 µM) was 14.7% and the viability, T/C (second compound 1 µM, first compound 10 µM) was 9.86%.
